Key:
[1] = tested on: Keratin 14; assay: Keratin expression in reconstructed human epidermal tissue (RHE), immunohistochemistry (Keratin 14); type: cell-based; settings: Keratin 14 immunofluorescence, 10 μg/ml, 48 hours
Description: (§1) The human epidermis continuously renews itself by a process of proliferation and differentiation of keratinocytes. Basal epidermal stem cells proliferate and the differentiation process begins above the basal layer, whereby the differentiating keratinocytes slowly move outward from the basal membrane, migrate through the epidermis, and undergo terminal differentiation culminating in fully differentiated dead cells on the surface. The process is a dynamic flux so that surface cells are continuously sloughed and replaced by inner cells differentiating and moving outward. […] To study the ability of the peptides of the invention to recover the basal keratinocyte state, the expression of Keratins 10 and 14 is evaluated by immunohistochemistry in a three-dimensional culture system, Reconstructed Human Epidermal Tissue (RHE), that reproduces in vitro the histological organization of human epidermis in situ. […]
(§2) The expression of Keratins 10 and 14 is evaluated by immunohistochemistry with a specific primary antibody and a fluorescently labelled secondary antibody. […] At the end of the incubation, slides are washed with 0.2% solution of Tween 20 in PBS and are incubated with Alexa Fluor® 488 Goat anti-mouse IgG (H+L) secondary antibody (Invitrogen, green fluorescence emission dye) for 1 hour at room temperature in a dark humidified chamber. […]

[2] = tested on: Keratin 10; assay: Keratin expression in reconstructed human epidermal tissue (RHE), immunohistochemistry (Keratin 10); type: cell-based; settings: Keratin 10 immunofluorescence, 10 μg/ml, 48 hours
Description: as §1, §2

[3] = tested on: Keratin 10; assay: Keratins expression profile in HEKa with 1 mM CaCl2, Real Time PCR Arrays (Keratin 10); type: cell-based, Human; settings: Keratin 10 mRNA, 48 hours
Experimental: The candidate compound is assayed for its ability to recover the basal keratinocyte state. The keratinocytes of the four layers of the epidermis present different expression patterns of keratins. Basal keratinocytes strongly express Keratin 14 and when differentiated, Keratin 10 is increased. To elucidate the keratinocyte state (basal or differentiated), the expression profile of keratins is analyzed by Real Time PCR Arrays, using a 96-well panel for use with SYBR® Green (BioRad) to detect mRNA expression levels of two keratin genes (Keratins 10 and 14) plus three housekeeping genes, and five controls, in Human Epidermal Keratinocytes from adult (HEKa) (Cascade Biologics).
HEKa cells are seeded at 6.0×10^5 cells/well in 6-well plates and incubated in culture medium Epilife with defined Growth Supplement (EDGS) (Cascade Biologics), for 24 hours at 37° C. in a water-saturated atmosphere of 95% air and 5% CO2. After 24 hours, the medium is removed and the cells are incubated with the synthetic peptide candidate at several concentrations in culture medium that contains 1 mM CaCl2) (Sigma) to induce differentiation of keratinocytes. Cells are incubated with 1 mM CaCl2) in culture medium and this provides a positive control of differentiation. Cells are incubated with culture medium only and these provide basal conditions. After 48 hours of treatment at 37° C. in a CO2 incubator, the cells are lysed directly in the wells, and RNA is purified following the protocol described on the RNeasy Mini kit (Qiagen) according to the manufacture's protocol. After RNA elution, quantification and analysis of purity of RNA samples are performed with a biophotometer (Eppendorf). […] SYBR Green binds to double-stranded DNA molecules and emits fluorescence which is quantified; the fluorescence intensity is proportional to the amount of the product in the PCR reaction. […] Fold change relative to the expression of the sample genes and reference genes is calculated using normalized expression (ΔΔ(Ct)) method using CFX Manager Software (BioRad).

Substance: Ac-QEMRMQ-OH [DD14024, Ac-Gln-Glu-Met-Arg-Met-Gln-OH]
- Fold induction respect to basal conditions (%) [1]: 425.83%
- Fold induction respect to basal conditions (%) [2]: 28.70%
- Fold induction respect to positive control of differentiation ([3]; 1 mM CaCl2, 0.001 mg/ml): 0.68 ± 0.04
- Fold induction respect to positive control of differentiation ([3]; 1 mM CaCl2, 0.005 mg/ml): 0.60 ± 0.02
- Fold induction respect to positive control of differentiation ([3]; 1 mM CaCl2, 0.01 mg/ml): 0.72 ± 0.06

Source: patent US10799442B2, “Compounds useful in the treatment and/or care of the skin, hair, nails, and/or mucous membranes” (LUBRIZOL ADVANCED MATERIALS, INC., priority 2015, dated 2020)
